Results from patent publication EP0385850A2, “Benzimidazole and azabenzimidazole derivatives, process for their preparation, synthesis intermediates, pharmaceutical compositions containing them, useful for the treatment of cardiovascular diseases and duodenal ulcers” (LABORATOIRES UPSA, priority 1989, dated 1990).

Experiments:
rats mâles de souche OFA [1] = assay: anti-ulcer activity against a non-steroidal anti-inflammatory (ulcerogenic drug), oral, rat; format: in vivo; settings: v.o., 30 min before ulcerogenic drug, stomachs removed 6 h after, dose reducing lesions by 50 %, determined graphically, read-out: activité anti-ulcère vis à vis d'un anti-inflammatoire non stéroïdien DA 50 Mg/Kg v.o.
Procedure: (§1) Des lots de 10 à 30 rats mâles de souche OFA (Iffa Credo), pesant 160-180 g, sont mis à la diète hydrique 24 h avant l'administration orale du produit étudié. Trente minutes plus tard, un agent ulcérigène médicamenteux ou un agent nécrosant (exemple : éthanol absolu) est administré par voie orale à des doses qui entraînent chez les animaux témoins une ulcération gastrique maximale. Les estomacs sont prélevés, selon le test, respectivement 6 et 1 h après le dernier traitement. Les lésions gastriques sont alors évaluées macroscopiquement (cotation et mesure de l'ampleur des ulcères).
(§2) Ils sont exprimés sous forme de dose active 50 déterminée graphiquement. Cette dose exprime la dose nécessaire pour réduire de 50 % les lésions ulcéreuses observées chez les animaux témoins.

rats mâles de souche OFA [2] = assay: anti-ulcer activity against a necrotising agent (e.g. absolute ethanol), oral, rat; format: in vivo; settings: v.o., 30 min before necrotising agent, stomachs removed 1 h after, dose reducing lesions by 50 %, determined graphically, read-out: activité anti-ulcère vis à vis d'un agent nécrosant DA 50 Mg/Kg v.o.
Procedure: as §1, §2

Compound	ED50 (rats mâles de souche OFA [1]) [mg/kg]	ED50 (rats mâles de souche OFA [2]) [mg/kg]
CSc1nc2ccc(-n3ccnc3)cc2[nH]1 [Exemple 128, (Imidazolyl-1)-5 (méthylthio)-2 benzimidazole]	18.3	4.5
C=CCSc1nc2ccc(-n3ccnc3)cc2[nH]1 [Exemple 129, (imidazolyl-1)-5 (allylthio)-2 benzimidazole]		0.33
C#CCSc1nc2ccc(-n3ccnc3)cc2[nH]1 [Exemple 130, (Imidazolyl-1)-5 (propargylthio)-2 benzimidazole]	9.24	0.48
Cn1c(=S)[nH]c2ccc(-n3ccnc3)cc21 [Exemple 124, (imidazolyl-1)-5 méthyl-3 benzimidazole thione-2]		4.5
